# Reference: US8728537B2, “Compositions for improvement of wound healing” (Cytotools AG, priority 2003, dated 2014)
# Test system: MRC 5 fibroblasts
# Assay: Cell biological test of active substance: proliferation of MRC 5 fibroblasts by quantification of cellular DNA after DAPI staining
# Format: cell-based
# Conditions: solutions containing only RC (50 μM) or only chlorite (100 μM)
# Procedure: The MRC 5 cells are seeded at 400 cells/cm^2 in a 24 well cell culture plate. The subsequent cultivation is carried out in an incubator 37° C. and 5 vol. % CO2 in a water vapor saturated atmosphere. After 24 hours of precultivation, the culture medium is suctioned off and the cells are washed with PBS.
# After 24, 48 and 72 hours, the proliferation of the cells is determined by quantification of the cellular DNA in a fluorometer (Novostar-Company: BMG Labtechnologies) after DAPI staining. Here, the increased fluorescence in the samples is equal to a proliferation of the cells.
# The plate to be measured is washed once per well with 500 μl PBS and then 250 μl PBS is placed in each well. 250 μl lysis buffer are added and the cells are lysed in a shaker at the lowest setting for 30 min at RT. Subsequently, 500 μl DAPI solution is added and the plate is left to stand for a further 10 min at RT.
# The plate is measured at 355 nm ex. and 460 nm em. in the Novostar. Normally, work is carried out with a gain adjustment of 1400-1600.
# The multiple determinations are averaged and the error values are calculated. The data obtained is evaluated graphically.
substance,measurement,value
chlorite,effect on the growth behaviour of the fibroblasts,no effect whatsoever
